From US9573939B2, “Substituted benzofuran compounds and methods of use thereof for the treatment of viral diseases” (priority 2011, dated 2017)

How the values were obtained:
[1] = tested on: HCV replicon genotype 1a; experiment: microbe, parasite or virus in culture; format: cell-based; conditions: Hepatitis C virus; HCV genotype 1a replicon cells; 96 hours incubation; replicon-encoded NS3/4A protein by ELISA; percentage of DMSO control
[2] = tested on: HCV replicon genotype 1b; experiment: microbe, parasite or virus in culture; format: cell-based; conditions: Hepatitis C virus; HCV genotype 1b replicon cells; 96 hours incubation; replicon-encoded NS3/4A protein by ELISA; percentage of DMSO control

Row | SMILES | IC50 [1] | IC50 [2]
1 | CNC(=O)c1c(-c2ccc(F)cc2)oc2cc(N(C)S(C)(=O)=O)c(-c3ccc4ncn(-c5ccc(F)cc5)c4c3)cc12 [Compound 15] | 338 nM | 20.2 nM
2 | CNC(=O)c1c(-c2ccc(F)cc2)oc2cc(N(C)S(C)(=O)=O)c(-c3ccc4c(c3)ncn4-c3ccccc3)cc12 [Compound 22] | 25.3 nM | 2.9 nM
3 | CNC(=O)c1c(-c2ccc(F)cc2)oc2cc(N(C)S(C)(=O)=O)c(-c3ccc4c(c3)ncn4-c3cccnc3)cc12 [Compound 23] | 24.1 nM | –
4 | CNC(=O)c1c(-c2ccc(F)cc2)oc2cc(N(C)S(C)(=O)=O)c(-c3ccc4ncn(CCO)c4c3)cc12 [Compound 28] | 755 nM | 75.7 nM
5 | CNC(=O)c1c(-c2ccc(F)cc2)oc2cc(N(C)S(C)(=O)=O)c(-c3ncc4ncn(-c5ccc(OC(F)(F)F)cc5)c4n3)cc12 [Compound 29, 2-(4-fluorophenyl)-N-methyl-6-(N-methylmethylsulfonamido)-5-(9-(4-(trifluoromethoxy)phenyl)-9H-purin-2-yl)benzofuran-3-carboxamide] | > 1000 nM | –
6 | CNC(=O)c1c(-c2ccc(F)cc2)oc2cc(N(C)S(C)(=O)=O)c(-c3ncc4ncn(-c5ccc(C#N)cc5)c4n3)cc12 [Compound 32] | > 1000 nM | –
7 | CNC(=O)c1c(-c2ccc(F)cc2)oc2cc(N(C)S(C)(=O)=O)c(-c3ccc4[nH]c(-c5ccccc5)cc4c3)cc12 [Compound 39] | > 1000 nM | –
8 | CNC(=O)c1c(-c2ccc(F)cc2)oc2cc(N(C)S(C)(=O)=O)c(-c3ccc4cnn(-c5ccc(Cl)cc5)c4c3)cc12 [Compound 52] | 6 nM | 6.9 nM
